Measured values published in ChEMBL document CHEMBL1136398, “Non-peptide alphavbeta3 antagonists. Part 6: design and synthesis of alphavbeta3 antagonists containing a pyridone or pyrazinone central scaffold” (Bioorg Med Chem Lett, 2003).

Legend:
[1] = Protein binding in human plasma; type: ADME, cell-free; settings: read-out: PB (converted)
[2] = Partition coefficient (logP); type: physicochemical; settings: octanol/water
Canis familiaris [3] = experiment: Plasma clearance in vivo in dog by intravenous administration at a dose of 0.2 mg/kg; type: ADME, organism-based, Canis lupus familiaris; design: dose 0.2 mg/kg, route intravenous
Canis familiaris [4] = experiment: Plasma clearance in vivo in dog by intravenous administration at a dose of 1 mg/kg; type: ADME, organism-based, Canis lupus familiaris; design: dose 1 mg/kg, route intravenous
[5] = Half-life in vivo in dog by intravenous administration at a dose of 1 mg/kg; type: ADME, organism-based, Canis lupus familiaris; design: dose 1 mg/kg, route intravenous
[6] = Half-life in vivo in dog by intravenous administration at a dose of 0.2 mg/kg; type: ADME, organism-based, Canis lupus familiaris; design: dose 0.2 mg/kg, route intravenous
Integrin alpha-V/beta-3 [7] = biological target: T1, Integrin alpha-V/beta-3 (Homo sapiens, UniProt P05106+P06756); experiment: Inhibitory activity against human alphaV-beta3 integrin using SPAV3 assay; type: protein-complex assay
Integrin alpha-V/beta-3 [8] = biological target: T1, Integrin alpha-V/beta-3; experiment: Inhibitory activity against human alpha V beta3 receptor using SPAV3 assay; type: protein-complex assay
[9] = Oral bioavailability in dog (dose 0.2 mg/kg i.v.); type: ADME, organism-based, Canis lupus familiaris; settings: in vivo
[10] = Oral bioavailability in dog (dose 1 mg/kg i.v.); type: ADME, organism-based, Canis lupus familiaris; settings: in vivo

T1 sequence (P05106 27-788 limits assumed): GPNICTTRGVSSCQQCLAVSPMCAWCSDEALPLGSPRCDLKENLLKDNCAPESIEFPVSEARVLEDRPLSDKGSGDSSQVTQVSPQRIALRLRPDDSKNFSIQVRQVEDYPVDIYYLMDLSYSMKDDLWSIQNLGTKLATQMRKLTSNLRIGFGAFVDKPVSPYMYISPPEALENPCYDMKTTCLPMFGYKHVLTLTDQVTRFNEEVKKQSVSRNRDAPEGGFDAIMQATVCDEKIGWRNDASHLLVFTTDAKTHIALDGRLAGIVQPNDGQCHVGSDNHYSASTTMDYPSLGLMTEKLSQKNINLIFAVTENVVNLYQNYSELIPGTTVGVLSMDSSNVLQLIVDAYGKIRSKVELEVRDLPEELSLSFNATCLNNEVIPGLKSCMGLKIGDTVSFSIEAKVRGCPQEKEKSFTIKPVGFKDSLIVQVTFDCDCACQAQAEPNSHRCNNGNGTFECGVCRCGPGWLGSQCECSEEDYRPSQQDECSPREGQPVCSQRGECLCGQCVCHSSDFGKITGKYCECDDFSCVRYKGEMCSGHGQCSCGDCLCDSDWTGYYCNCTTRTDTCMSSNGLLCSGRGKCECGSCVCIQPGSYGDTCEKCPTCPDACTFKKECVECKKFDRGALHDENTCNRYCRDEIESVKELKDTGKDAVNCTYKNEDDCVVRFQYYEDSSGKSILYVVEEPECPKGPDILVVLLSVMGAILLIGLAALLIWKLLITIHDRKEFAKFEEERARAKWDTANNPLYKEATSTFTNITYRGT
T1 sequence (P06756 31-889 limits assumed): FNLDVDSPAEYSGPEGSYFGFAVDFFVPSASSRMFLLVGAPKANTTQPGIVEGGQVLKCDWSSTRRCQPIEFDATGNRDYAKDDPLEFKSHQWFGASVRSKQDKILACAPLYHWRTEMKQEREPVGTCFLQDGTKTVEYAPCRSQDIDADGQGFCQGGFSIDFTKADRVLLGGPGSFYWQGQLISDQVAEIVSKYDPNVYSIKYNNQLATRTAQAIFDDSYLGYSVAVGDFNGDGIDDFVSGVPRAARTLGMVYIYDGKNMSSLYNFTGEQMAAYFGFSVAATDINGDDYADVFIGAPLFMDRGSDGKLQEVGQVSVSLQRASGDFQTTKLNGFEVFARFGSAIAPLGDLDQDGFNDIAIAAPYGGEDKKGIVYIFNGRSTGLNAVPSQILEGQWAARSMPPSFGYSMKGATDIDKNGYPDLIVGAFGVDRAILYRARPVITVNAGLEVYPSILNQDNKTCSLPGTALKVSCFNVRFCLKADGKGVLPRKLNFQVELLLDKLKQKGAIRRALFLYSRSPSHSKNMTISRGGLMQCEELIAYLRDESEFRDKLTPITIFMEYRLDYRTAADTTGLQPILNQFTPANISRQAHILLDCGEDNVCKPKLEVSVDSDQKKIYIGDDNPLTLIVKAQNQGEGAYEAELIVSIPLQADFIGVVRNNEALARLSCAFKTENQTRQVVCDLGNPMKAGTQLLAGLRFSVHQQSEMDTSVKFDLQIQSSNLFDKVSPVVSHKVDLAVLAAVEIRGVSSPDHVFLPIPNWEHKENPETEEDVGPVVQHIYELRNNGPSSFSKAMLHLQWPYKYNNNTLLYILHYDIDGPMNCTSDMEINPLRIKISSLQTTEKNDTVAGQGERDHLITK
T1 sequence (P06756 891-1048 limits assumed): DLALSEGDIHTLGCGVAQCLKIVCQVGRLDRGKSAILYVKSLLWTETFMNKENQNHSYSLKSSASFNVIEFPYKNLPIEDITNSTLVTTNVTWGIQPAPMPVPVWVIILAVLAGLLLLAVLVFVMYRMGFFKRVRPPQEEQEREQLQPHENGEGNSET

Structure (SMILES)	fraction unbound [1]	logP [2]	Cl (Canis familiaris [3])	Cl (Canis familiaris [4])	half-life [5]	half-life [6]	IC50 (Integrin alpha-V/beta-3 [7])	IC50 (Integrin alpha-V/beta-3 [8])	bioavailability [9]	bioavailability [10]
O=C(O)C[C@H](NC(=O)Cn1c(C2CC2)c(Cl)nc(NCc2ccc3c(n2)NCCC3)c1=O)c1cccc(F)c1	–	1.1	–	–	–	–	–	2.7 nM	–	–
O=C(O)C[C@H](NC(=O)Cn1c(C2CC2)c(Cl)nc(NCc2ccc3c(n2)NCCC3)c1=O)c1cnc2ccccc2c1	–	1.12	–	–	–	–	–	0.7 nM	–	–
Cc1c(Cl)nc(NCc2ccc3c(n2)NCCC3)c(=O)n1CC(=O)N[C@@H](CC(=O)O)c1cccc(F)c1	0.015	0.61	28 mL/min/kg	28 mL/min/kg	2.1 h	2.1 h	–	2.1 nM	–	–
O=C(O)C[C@H](NC(=O)Cn1c(C2CC2)ccc(NCc2ccc3c(n2)NCCC3)c1=O)c1cccc(F)c1	0.006	0.54	20 mL/min/kg	20 mL/min/kg	0.8 h	0.8 h	0.8 nM	–	3%	3%
O=C(O)C[C@H](NC(=O)Cn1c(-c2ccccc2)c(Cl)nc(NCc2ccc3c(n2)NCCC3)c1=O)c1cccc(F)c1	–	1.6	–	–	–	–	–	112 nM	–	–
C#C[C@H](CC(=O)O)NC(=O)Cn1c(C2CC2)ccc(NCc2ccc3c(n2)NCCC3)c1=O	–	-0.97	–	–	–	–	9 nM	–	–	–
O=C(O)C[C@H](NC(=O)Cn1c(C2CC2)cnc(NCc2ccc3c(n2)NCCC3)c1=O)c1ccc2c(c1)OCO2	0.025	-0.1	26 mL/min/kg	26 mL/min/kg	1.1 h	1.1 h	–	0.2 nM	0.3%	0.3%
O=C(O)C[C@H](NC(=O)Cn1c(C2CC2)c(Cl)nc(NCc2ccc3c(n2)NCCC3)c1=O)c1ccc2c(c1)OCC2	–	0.9	–	–	–	–	–	0.2 nM	–	–
CCc1c(Cl)nc(NCc2ccc3c(n2)NCCC3)c(=O)n1CC(=O)N[C@@H](CC(=O)O)c1cccc(F)c1	–	1.3	–	–	–	–	–	9.3 nM	–	–
Cc1cnc(NCc2ccc3c(n2)NCCC3)c(=O)n1CC(=O)N[C@@H](CC(=O)O)c1cccc(F)c1	–	-0.31	–	–	–	–	–	1.1 nM	–	–
O=C(O)C[C@H](NC(=O)Cn1c(C2CC2)ccc(NCc2ccc3c(n2)NCCC3)c1=O)c1ccc2c(c1)OCC2	–	0.28	–	–	–	–	0.2 nM	–	–	–
CCc1cnc(NCc2ccc3c(n2)NCCC3)c(=O)n1CC(=O)N[C@@H](CC(=O)O)c1cccc(F)c1	0.028	-0.47	22 mL/min/kg	22 mL/min/kg	1.4 h	1.4 h	–	1.9 nM	4.3%	4.3%

The remaining lines, values ahead:

fraction unbound [1]	logP [2]	Cl (Canis familiaris [3])	Cl (Canis familiaris [4])	half-life [5]	half-life [6]	IC50 (Integrin alpha-V/beta-3 [7])	IC50 (Integrin alpha-V/beta-3 [8])	bioavailability [9]	bioavailability [10]	Structure (SMILES)
0.088	-1.46	21 mL/min/kg	21 mL/min/kg	0.8 h	0.8 h	1 nM	–	–	–	Cc1ccc(NCc2ccc3c(n2)NCCC3)c(=O)n1CC(=O)N[C@@H](CC(=O)O)c1cccnc1
0.446	–	–	–	1 h	1 h	–	0.4 nM	–	–	O=C(O)C[C@H](NC(=O)CN1CC[C@H](CCc2ccc3c(n2)NCCC3)C1=O)c1cccnc1
–	1.55	–	–	–	–	1.4 nM	–	–	–	O=C(O)C[C@H](NC(=O)Cn1cccc(NCc2ccc3c(n2)NCCC3)c1=O)c1cccnc1
–	–	–	–	–	–	–	21 nM	–	–	O=C(O)C[C@H](NC(=O)Cc1cccc(CCc2ccc3c(n2)NCCC3)c1)c1cccnc1
–	–	–	–	–	–	0.8 nM	–	–	–	Cc1cnc(NCc2ccc3c(n2)NCCC3)c(=O)n1CC(=O)N[C@@H](CC(=O)O)c1cccnc1
–	0.25	–	–	–	–	–	0.2 nM	–	–	O=C(O)C[C@H](NC(=O)Cn1c(C2CC2)cnc(NCc2ccc3c(n2)NCCC3)c1=O)c1cccnc1
–	-0.48	–	–	–	–	1.4 nM	–	–	–	CCCc1ccc(NCc2ccc3c(n2)NCCC3)c(=O)n1CC(=O)N[C@@H](CC(=O)O)c1cccnc1
–	–	–	–	–	–	246 nM	–	–	–	O=C(O)C[C@H](NC(=O)Cc1ccc(CCc2ccc3c(n2)NCCC3)s1)c1cccnc1
0.025	0.15	26 mL/min/kg	26 mL/min/kg	1.1 h	1.1 h	–	1.4 nM	0.3%	0.3%	O=C(O)C[C@H](NC(=O)Cn1c(C2CC2)cnc(NCc2ccc3c(n2)NCCC3)c1=O)c1cccc(F)c1
–	-0.8	–	–	–	–	0.2 nM	–	–	–	O=C(O)C[C@H](NC(=O)Cn1c(C2CC2)ccc(NCc2ccc3c(n2)NCCC3)c1=O)c1cccnc1
–	-0.26	–	–	–	–	–	0.3 nM	–	–	O=C(O)C[C@H](NC(=O)Cn1c(C2CC2)c(Cl)nc(NCc2ccc3c(n2)NCCC3)c1=O)c1cccnc1
